Assay results taken from patent publication US8815829B2, “3′-azido purine nucleotide prodrugs for treatment of viral infections” (priority 2008, dated 2014).
Where two headings read alike, the source gives them in different places.

Columns and labels:
Wild-type (WT) HIV-1 RT = target: T1, Wild-type (WT) HIV-1 RT (Human immunodeficiency virus type 1 group M subtype B, UniProt P03367); test: Inhibition of HIV-1 RT DNA synthesis by 6-modified-AZG analogs; format: biochemical; conditions: DNA/DNA template/primer, 200 nM WT RT, 40 min
T1 construct: HIV-1 RT (xxLAI background); inferred from vector p6HRT-PROT and the cited metal chelate purification; made in house; host or cells: bacteria (p6HRT-PROT expression vector)
Protocol: Wild-type (WT) HIV-1 RT was purified as described previously (1, 2). […] The 214 nucleotide (nt) DNA template, corresponding to the HIV-1 PBS region, was prepared as described previously (4). Reactions were initiated by the addition of 200 nM WT RT, incubated for 40 min at 37° C. and then quenched using 20 μL of gel loading buffer (98% deionized formamide containing 1 mg/mL each of bromophenol blue and xylene cyanol). […] Gels were analyzed using phosphorimaging with a GS525 Molecular Imager and Quantity One Software (Biorad Laboratories, Inc., Hercules, Calif.).

151M complex RT = test: Studies with purified RT: inhibition of 151M complex RT; format: biochemical, HIV-1
HIV-1/LAI = test: Anti-HIV-1 assay in PBM cells; format: cell-based; conditions: Tables 2-4, n = 3 for the MP prodrugs
Protocol: Stock solutions (20-40 mM) of the compounds were prepared in sterile DMSO and then diluted to the desired concentration in growth medium. Cells were infected with the prototype HIV-1LAI at a multiplicity of infection of 0.01. Virus obtained from the cell supernatant was quantified on day 6 after infection by a reverse transcriptase assay using (rA)n·(dT)12-18 as template-primer. […] The antiviral EC50 and EC90 were obtained from the concentration-response curve using the median effective method described previously (see Chou T.-C. & Talalay P. Adv. Enzyme Regul. 1984, 22, 27-55; Belen'kii M. S. & Schinazi R. F. Antiviral Res. 1994, 25, 1-11).

PBM cells = test: Cytotoxicity assay in PBM cells; format: cell-based, human; conditions: Tables 2-4; read-out: PBM IC50
CEM cells = test: Cytotoxicity assay in CEM cells; format: cell-based, human; conditions: Tables 2-4; read-out: CEM IC50
Vero cells = test: Cytotoxicity assay in Vero cells; format: cell-based; conditions: read-out: Vero IC50; Tables 2-4
WT (LAI) HIV-1 = test: Single cycle assay in P4/R5 cells, WT HIV-1; format: cell-based
Protocol: (§1) In a 96-well plate, two- or three-fold serial dilutions of an inhibitor were added to P4/R5 cells in triplicate. […] At 48 h post-infection, a cell lysis buffer and luminescent substrate (Gal-Screen; Tropix/Applied Biosystems) was added to each well, and relative light unit values were determined using a luminometer (ThermoLabSystems, Waltham, Mass.).
(§2) Virus stocks were prepared as described above. Drug susceptibility assays were performed using the single- and multiple-replication-cycle assays also described above.

[1] = tested on: HIV-1 AZT2 (D67N/K70R/T215F/K219Q); test: microbe, parasite or virus in culture; format: cell-based
Protocol: as §1, §2

[2] = tested on: HIV-1 AZT3 (M41L/L210W/T215Y); test: microbe, parasite or virus in culture; format: cell-based
Protocol: as §1, §2

[3] = tested on: HIV-1 AZT7 (M41L/D67N/K70R/T215F/K219Q); test: microbe, parasite or virus in culture; format: cell-based
Protocol: as §1, §2

[4] = tested on: HIV-1 AZT9 (M41L/D67N/K70R/L210W/T215Y/K219Q); test: microbe, parasite or virus in culture; format: cell-based
Protocol: as §1, §2

HIV-1 K65R = test: microbe, parasite or virus in culture; format: cell-based
Protocol: as §1, §2

HIV-1 L74V = test: microbe, parasite or virus in culture; format: cell-based
Protocol: as §1, §2

HIV-1 M184V = test: microbe, parasite or virus in culture; format: cell-based
Protocol: as §1, §2

[5] = tested on: HIV-1 Q151Mc (A62V/V75I/F77L/F116Y/Q151M); test: microbe, parasite or virus in culture; format: cell-based; conditions: mean ± standard deviation
Protocol: as §1, §2

[6] = tested on: HIV-1 T69SSS (M41L/T69SSS/L210W/T215Y); test: microbe, parasite or virus in culture; format: cell-based; conditions: Human immunodeficiency virus 1, P4/R5, P4/R5 cells, mean ± standard deviation
Protocol: as §1, §2

NRTI-resistant HIV-1 = test: Cross-resistance against a broad panel of NRTI-resistant HIV-1; format: cell-based
[7] = Human immunodeficiency virus 1, P4/R5 cells, mean ± standard deviation

[N-]=[N+]=N[C@H]1C[C@H](n2cnc3c(N)nc(N)nc32)O[C@@H]1COP(=O)(O)OP(=O)(O)OP(=O)(O)O [RS-667-TP]
potency of inhibition of HIV-1 RT DNA synthesis (rank order) (Wild-type (WT) HIV-1 RT): most potent analog
potency against 151M complex RT (151M complex RT): less potent than AZG-TP

CCOC(=O)[C@H](C)NP(=O)(OC[C@H]1O[C@@H](n2cnc3c(N)nc(N)nc32)CC1N=[N+]=[N-])Oc1ccccc1 (stereo partly shown) [RS-788]
EC50 (HIV-1/LAI; read-out: HIV EC50): 0.009 µM
EC90 (HIV-1/LAI; read-out: HIV EC90): 0.11 µM
IC50 (PBM cells): 38.3 µM
IC50 (CEM cells): 30.4 µM
IC50 (Vero cells): > 100 µM
fold more potent against WT HIV-1 compared to either RS-667 or RFS-457 (WT (LAI) HIV-1): ~10 fold
EC50 (WT (LAI) HIV-1; Human immunodeficiency virus 1, P4/R5, read-out: EC50 WT (LAI), P4/R5 cells, mean ± standard deviation): 0.12 µM
EC50 (WT (LAI) HIV-1; read-out: EC50 WT (LAI), P4/R5 cells, mean ± standard deviation): 0.118 ± 0.06 µM
Fold-change versus WT, AZT2 ([1]; EC50 mutant / EC50 WT): (2.3) fold
EC50 [1, 7]: 0.274 ± 0.07 µM
Fold-change versus WT, AZT3 ([2]; EC50 mutant / EC50 WT): (1.6) fold
EC50 [2, 7]: 0.189 ± 0.02 µM
Fold-change versus WT, AZT7 ([3]; EC50 mutant / EC50 WT): (2.3) fold
EC50 [3, 7]: 0.27 ± 0.05 µM
Fold-change versus WT, AZT9 ([4]; EC50 mutant / EC50 WT): (2.1) fold
EC50 [4, 7]: 0.253 ± 0.09 µM
Fold-change versus WT, K65R (HIV-1 K65R; EC50 mutant / EC50 WT): (0.9) fold
EC50 (HIV-1 K65R; [7]): 0.106 ± 0.07 µM
Fold-change versus WT, L74V (HIV-1 L74V; EC50 mutant / EC50 WT): (0.6) fold
EC50 (HIV-1 L74V; [7]): 0.073 ± 0.02 µM
Fold-change versus WT, M184V (HIV-1 M184V; EC50 mutant / EC50 WT): (0.4) fold
EC50 (HIV-1 M184V; [7]): 0.048 ± 0.03 µM
EC50 ([5]; Human immunodeficiency virus 1, P4/R5, P4/R5 cells): 0.28 µM
EC50 ([5]; P4/R5 cells): 0.277 ± 0.07 µM
EC50 [6]: 0.44 µM
cross-resistance profile compared to AZD, AZG or AZT (NRTI-resistant HIV-1): superior cross-resistance profile
